Laboratory results published in patent publication US6534524B1, “Indazole compounds and pharmaceutical compositions for inhibiting protein kinases, and methods for their use” (Agouron Pharmaceuticals, Inc., priority 1999, dated 2003).
Read-outs that look alike come from different tables or passages of the source.

Legend:
human CHK1 (FL-CHK1) = biological target: T1, human CHK1 (FL-CHK1) (Homo sapiens, UniProt O14757); experiment: CHK1 assay (coupled spectrophotometric, Syntide-2); format: biochemical; settings: Table 1; read-out: CHK-1 Ki
T1 construct: C-terminally His-tagged full-length human CHK1 (FL-CHK1); made in house; host or cells: baculovirus/insect cell system
T1 sequence (O14757 1-476): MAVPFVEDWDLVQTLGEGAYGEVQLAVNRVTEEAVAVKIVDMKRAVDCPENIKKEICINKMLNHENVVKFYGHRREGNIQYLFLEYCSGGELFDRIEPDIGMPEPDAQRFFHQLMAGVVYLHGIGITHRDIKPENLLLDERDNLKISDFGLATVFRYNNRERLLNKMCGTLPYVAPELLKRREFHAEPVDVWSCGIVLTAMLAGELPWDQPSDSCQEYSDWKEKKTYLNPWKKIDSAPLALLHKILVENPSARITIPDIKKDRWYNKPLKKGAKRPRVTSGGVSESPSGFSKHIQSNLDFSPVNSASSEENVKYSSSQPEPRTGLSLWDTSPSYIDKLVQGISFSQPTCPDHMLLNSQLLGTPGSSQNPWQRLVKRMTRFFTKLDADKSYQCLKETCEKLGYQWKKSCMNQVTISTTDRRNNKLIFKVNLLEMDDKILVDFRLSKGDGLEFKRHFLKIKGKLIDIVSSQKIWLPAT
Outline: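 Full-length C-terminally His-tagged human CHK1 expressed in baculovirus/insect cells, used at 10 nM with Syntide-2 substrate. ADP formation coupled via PK/LDH to NADH oxidation, followed as absorbance decrease at 340 nm. Ki from initial rates at varying compound concentrations.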

CDK2/Cyclin A = CDK2/Cyclin A (Homo sapiens, UniProt P24941); experiment: CDK2/Cyclin A assay ([32P]ATP, Rb fragment); format: biochemical; settings: Table 1
[1] = biological target: unphosphorylated VEGF-R2Δ50 (FLVK) (Homo sapiens, UniProt P35968, DEL940-989/E990V); experiment: VEGF-R2 coupled spectrophotometric assay, unphosphorylated VEGF-R2Δ50 (FLVK); settings: for Ki: FLVK Ki, Table 1
Sequence of unphosphorylated VEGF-R2Δ50 (FLVK) (P35968 with tags, fused parts or gaps DEL940-989/E990V limits assumed): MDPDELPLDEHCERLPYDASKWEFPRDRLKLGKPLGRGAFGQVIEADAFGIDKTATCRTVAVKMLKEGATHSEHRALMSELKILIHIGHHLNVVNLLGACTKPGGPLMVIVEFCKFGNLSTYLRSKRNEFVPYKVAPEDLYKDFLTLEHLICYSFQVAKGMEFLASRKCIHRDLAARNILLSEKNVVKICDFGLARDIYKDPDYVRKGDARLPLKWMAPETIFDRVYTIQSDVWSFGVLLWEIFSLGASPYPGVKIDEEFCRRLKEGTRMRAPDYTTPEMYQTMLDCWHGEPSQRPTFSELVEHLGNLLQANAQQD

[2] = Human liver microsome (HLM) assay; format: in vitro ADME; settings: human liver microsomes, 5 μM test compound
Outline: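 Compound metabolism in human liver microsomes measured in triplicate. Samples at 0 and 2 h centrifuged at 14000 g for 10 min and analysed by LC-MS.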

[3] = biological target: phosphorylated VEGF-R2Δ50 (FLVK-P) (Homo sapiens, UniProt P35968, DEL940-989/E990V); experiment: VEGF-R2 coupled spectrophotometric assay, phosphorylated VEGF-R2Δ50 (FLVK-P)
Sequence of phosphorylated VEGF-R2Δ50 (FLVK-P) (P35968 with tags, fused parts or gaps DEL940-989/E990V limits assumed): as above

LCK tyrosine kinase = biological target: T2, LCK tyrosine kinase (Homo sapiens, UniProt P06239, C224D/P223M); experiment: LCK spectrophotometric assay; format: biochemical; settings: Table 1; for inhibition at 1 µM: compound concentration 1 μM, read-out: Lck-P % inhibition
T2 construct: starting from amino acid residue 223 to the end of the protein at residue 509; made in house; host or cells: insect cells
T2 sequence (P06239 223-509 P223M/C224D): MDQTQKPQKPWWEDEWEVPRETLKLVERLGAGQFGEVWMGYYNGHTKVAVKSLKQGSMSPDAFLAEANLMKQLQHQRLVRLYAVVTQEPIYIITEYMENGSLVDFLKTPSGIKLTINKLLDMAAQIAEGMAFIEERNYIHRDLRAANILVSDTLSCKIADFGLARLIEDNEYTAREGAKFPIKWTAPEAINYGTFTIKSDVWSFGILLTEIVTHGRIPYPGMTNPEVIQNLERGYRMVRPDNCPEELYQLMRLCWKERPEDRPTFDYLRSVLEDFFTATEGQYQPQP
Procedure: The production of ADP from ATP that accompanies phosphoryl transfer was coupled to oxidation of NADH using phosphoenolpyruvate (PEP) and a system having pyruvate kinase (PK) and lactic dehydrogenase (LDH). The oxidation of NADH was monitored by following the decrease of absorbance at 340 nm (e340=6.22 cm^−1 mM^−1) using a Beckman DU 650 spectrophotometer. […] Ki values were determined by measuring enzyme activity in the presence of varying concentrations of test compounds. The data were analyzed using Enzyme Kinetic and Kaleidagraph software.
The spectrophotometric assay was carried out as described above for VEGF-R2, except for the following changes in concentration: LCK=60 nM, MgCl2=0 mM, poly(E4Y1)=20 mM.

[4] = Determination of inhibitor concentration in mouse plasma after intraperitoneal and oral dosing; format: in vivo; settings: for concentration at 7 h: female
Outline: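 Mice dosed intraperitoneally or orally; blood taken by ocular bleed at 0.5, 1 and 4 h and by intracardiac puncture at 7 h. Plasma extracted with ethyl acetate after internal standard and NaOH addition, analysed by HPLC or LC-MS against a mouse-plasma standard curve.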

Mouse PK assay = format: in vivo; settings: female, B6, plasma, oral
Procedure: Mouse PK Assay The pharmacolinetics (e.g., absorption and elimination) of drugs in mice were analyzed using the following experiment. […] This was administered orally (p.o.) and intraperitoneally (i.p.) at variable doses to two distinct groups (n=4) of B6 female mice. Blood samples were collected via an orbital bleed at time points: 0 hour (pre-dose), 0.5 h, 1.0 h, 2.0 h, and 4.0 h, and 7.0 h post dose. Plasma was obtained from each sample by centrifugation at 2500 rpm for 5 min. Test compound was extracted from the plasma by an organic protein precipitation method. For each time bleed 50 μL of plasma was combined with 1.0 mL of acetonitrile, vortexed for 2 min. and then spun at 4000 rpm for 15 min. to precipitate the protein and extract out the test compound. Next, the acetonitrile supernatant (the extract containing test compound) was poured into new test tubes and evaporated on a hot plate (25° C.) under a steam of N2 gas. […] Test-compound plasma concentrations (μg/mL) were determined by a comparison to standard curve (peak area vs. conc. μg/mL) using known concentrations of test compound extracted from plasma samples in the manner described above. […] The quantitated test samples were plotted for visual display using Kalidagraph software and their pharmacokinetic parameters were determined using WIN NONLIN software.

human FGF-R1 = human FGF-R1 (Homo sapiens, UniProt P11362, C488A/C584S/L457V); experiment: FGF-R spectrophotometric assay
Sequence of human FGF-R1 (P11362 456-766 L457V/C488A/C584S): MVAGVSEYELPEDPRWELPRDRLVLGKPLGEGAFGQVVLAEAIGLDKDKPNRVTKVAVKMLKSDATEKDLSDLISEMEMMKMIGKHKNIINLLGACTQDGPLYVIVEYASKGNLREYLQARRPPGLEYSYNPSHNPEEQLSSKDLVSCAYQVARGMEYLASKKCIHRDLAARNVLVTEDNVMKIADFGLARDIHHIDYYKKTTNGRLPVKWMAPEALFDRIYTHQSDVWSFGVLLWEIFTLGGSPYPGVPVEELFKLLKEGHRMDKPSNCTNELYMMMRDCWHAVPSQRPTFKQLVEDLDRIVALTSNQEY

CDK4/Cyclin D3 complex = CDK4/Cyclin D3 complex (Homo sapiens, UniProt P11802); experiment: CDK4/Cyclin D assay ([32P]ATP, Rb fragment)
Sequence of CDK4/Cyclin D3 complex (P11802 whole entry, the tested form may be a part): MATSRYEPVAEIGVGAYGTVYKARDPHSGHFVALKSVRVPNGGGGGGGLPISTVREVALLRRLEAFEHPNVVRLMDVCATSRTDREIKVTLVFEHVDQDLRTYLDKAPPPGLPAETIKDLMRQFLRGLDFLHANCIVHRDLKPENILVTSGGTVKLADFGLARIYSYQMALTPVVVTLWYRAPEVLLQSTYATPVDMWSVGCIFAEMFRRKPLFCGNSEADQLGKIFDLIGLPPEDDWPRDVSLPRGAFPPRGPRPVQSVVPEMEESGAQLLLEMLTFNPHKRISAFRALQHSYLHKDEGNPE
Sequence of CDK4/Cyclin D3 complex (P30281 whole entry partner, the tested form may be a part): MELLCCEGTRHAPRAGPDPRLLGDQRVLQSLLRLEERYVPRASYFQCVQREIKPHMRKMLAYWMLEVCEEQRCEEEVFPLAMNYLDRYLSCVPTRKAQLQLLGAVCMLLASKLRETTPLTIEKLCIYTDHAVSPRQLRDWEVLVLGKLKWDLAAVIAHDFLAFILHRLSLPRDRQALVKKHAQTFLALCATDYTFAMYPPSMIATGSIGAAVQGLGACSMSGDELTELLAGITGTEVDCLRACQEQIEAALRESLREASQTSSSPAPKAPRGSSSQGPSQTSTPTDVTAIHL

[5] = Isomerization under assay conditions; format: physicochemical; settings: Z-isomer
Procedure: Example 33(h) was prepared in the same reaction as Example 33(d). […] Found: C, (66.36), H, (4.08), N, (11.49), S, (6.55).

[6] = system: retinal vasculature (VEGF dependent); experiment: In vivo assay of retinal vascular development in neonatal rats; settings: P8 model; intravitreal; 5 mg/ml; vehicle PEG/water 50:50
[7] = system: VEGF dependent retinal neovascularization; experiment: In vivo assay of retinal vascular development in neonatal rat model of retinopathy of prematurity; settings: ROP model, intravitreal, vehicle PEG/water 70:30; for % inhibition: 1 mg/ml; for Initial Evaluation: 10 mg/ml
Procedure: In Vivo Assay of Retinal Vascular Development in Neonatal Rat Model of Retinopathy of Prematurity A second model of VEGF dependent retinal neovascularization was employed to evaluate the activities of this series of compounds. […] This alternating cycle of hyperoxia followed by hypoxia is repeated 7 times after which the animals are removed to room air (P14). Compounds are administered via intravitreal injection upon removal to room air and the animals are sacrificed 6 days later (P20). The isolated retinas are then isolated, stained mounted and analyzed as detail above in the development model. The effectiveness was also graded as is described for the development model.

[8] = system: lung cancer cells (line MV522); experiment: Cancer cell proliferation (MV522) assay; format: cell-based
Procedure: Cancer Cell Proliferation (MV522) Assay
The protocol for assessing cellular proliferation in cancer cells is similar to that used for assessments in HUVEC cells. Two thousand lung cancer cells (line MV522, acquired from American Tissue Cultural Collection) were seeded in growth media (RPMI1640 medium supplemented with 2 mM glutamine and 10% FBS). Cells are allowed to attach for 1 day prior to addition of test agents and/or vehicles. Cells are treated simultaneously with the same test agents used in the HUVEC assay. Cellular proliferation is quantified by MTT dye reduction assay 72 hours after exposure to test agents. The total length of the assay is 4 days vs. 5 for HUVEC cells because MV522 cells are not exposed to starvation medium.

[9] = system: human umbilical vein endothelial cells (HUVEC); experiment: HUVEC proliferation assay (VEGF-stimulated, MTT); format: cell-based; settings: Homo sapiens, HUVEC
[10] = IP, 50 mg/kg, vehicle PEG400:H2O pH 2.3 30:70
[11] = IP, 25 mg/kg, vehicle PEG400:H2O pH 2.3 60:40
[12] = PO, 50 mg/kg, vehicle PEG400:H2O pH 2.3 60:40
[13] = IP, 25 mg/kg, vehicle PEG400:H2O pH 2.3 60:40, read-out: Cmin (7 hr conc.)
[14] = PO, 50 mg/kg, vehicle PEG400:H2O pH 2.3 60:40, read-out: Cmin (7 hr conc.)
[15] = + albumin, read-out: HUVEC + albumin IC50

COc1cc(-c2ccc3c(/C=C/c4ccc(OC)c(OC)c4)n[nH]c3c2)ccc1O [Example 1(a), 3-[E-2-(3,4-Dimethoxy-phenyl)vinyl]-6-(3-methoxy-4-hydroxy-phenyl)-1H-indazole]
Ki (human CHK1 (FL-CHK1)): 5.2 nM | Ki (CDK2/Cyclin A): 19 nM | Ki [1]: 0.3 nM | % remain (HLM, 2 h) [2]: 98% | Ki [3]: 2 nM | Ki (LCK tyrosine kinase; read-out: Lck-P Ki): 88 nM | AUClast [4, 10]: 691 ng·h/mL | Cmax [4, 10]: 283 ng/mL | plasma half-life (T1/2) [4, 10]: 2.4 h | AUC (Mouse PK assay): 330 ng·h/mL | Ki (human FGF-R1): 27 nM | Ki (CDK4/Cyclin D3 complex): 13 nM

O=C(Nc1cccc(Cl)c1)c1ccccc1Sc1ccc2c(/C=C\c3ccccn3)n[nH]c2c1 [Example 33(h), 6-[2-(3-Chlorophenylcarbamoyl)phenylsulfanyl]-3-Z-[2-(pyridin-2-yl)ethenyl]-1H-indazole]
Isomerization under assay conditions [5]: found to isomerize to Example 33(d) under assay conditions

C/C=C/C(=O)Nc1cccc(C(=O)c2ccc3c(/C=C/c4ccccn4)n[nH]c3c2)c1 [Example 41(c), 6-(3-Crotonylamidobenzoyl)-3-E-[2-(pyridin-2-yl)ethenyl]-1H-indazole]
Ki [1]: 0.22 nM | % remain (HLM, 2 h) [2]: 68% | Initial Evaluation [6]: ++ (two pluses being judged to be approximately 25-75% regression) | AUClast [4, 11]: 3397 ng·h/mL | plasma half-life (T1/2) [4, 11]: 1.7 h | AUClast [4, 12]: 3182 ng·h/mL | plasma half-life (T1/2) [4, 12]: 2.6 h | concentration at 7 h [4, 13]: 57 ng/mL | concentration at 7 h [4, 14]: 104 ng/mL | % inhibition [7]: 16% | Initial Evaluation [7]: +++ (three pluses give to retinas with near total regression (approximately 75% or greater))

O=C(c1cccc(NC(=O)c2cccc3[nH]ccc23)c1)c1ccc2c(/C=C/c3ccccn3)n[nH]c2c1 [Example 41(d), 6-[3-(Indol-4-ylcarboxamido)benzoyl]-3-E-[2-(pyridin-2-yl)ethenyl]-1H-indazole]
Ki [1]: 0.093 nM | AUClast [4, 11]: 10324 ng·h/mL | plasma half-life (T1/2) [4, 11]: 2.8 h | AUClast [4, 12]: 7072 ng·h/mL | plasma half-life (T1/2) [4, 12]: 1.5 h | concentration at 7 h [4, 13]: 573 ng/mL | concentration at 7 h [4, 14]: 150 ng/mL | % inhibition [7]: 0%

O=C(c1cccc(NC(=O)c2cccc3[nH]ccc23)c1)c1ccc2c(/C=N/n3cccc3)n[nH]c2c1 [Example 45(a), 6-[3-(Indol-4-ylcarboxamido)benzoyl]-3-E-[N-(pyrrol-1-yl)iminomethyl]-1H-indazole]
IC50 [8]: 3.5 µM | IC50 [9, 15]: ~15 nM | IC50 ([9]; read-out: HUVEC IC50): 3.1 nM

O=C(Nc1cccc(C(=O)c2ccc3c(/C=N/n4cccc4)n[nH]c3c2)c1)c1ccccc1 [Example 45(b), 6-(3-Benzamidobenzoyl)-3-E-[N-(pyrrol-1-yl)iminomethyl]-1H-indazole]
inhibition at 0.05 µM ([1]; read-out: FLVK % inhibition): 99% | IC50 [8]: 4.4 µM | inhibition at 1 µM (LCK tyrosine kinase): 86% | AUClast [4, 11]: 11361 ng·h/mL | plasma half-life (T1/2) [4, 11]: 2.0 h | AUClast [4, 12]: 1636 ng·h/mL | plasma half-life (T1/2) [4, 12]: 3.0 h | inhibition at 1 µM (human FGF-R1; read-out: FGF-P % inhibition, Table 1, compound concentration 1 μM): 79% | Initial Evaluation [7]: ++ (two pluses being judged to be approximately 25-75% regression)

Cc1cc(C(=O)Nc2cc(Nc3ccc4c(/C=C/c5ccccn5)n[nH]c4c3)ccc2F)n(C)n1 [Example 49(a), 6-[N-(3-((1,3-Dimethyl-1H-pyrazol-5-yl)carboxamido)-4-fluoro-phenyl)amino]-3-E-[2-(pyridin-2-yl)ethenyl]-1H-indazole]
IC50 [8]: 8.4 µM | inhibition at 1 µM (LCK tyrosine kinase): 11% | AUClast ([4]; PO, 25 mg/kg, vehicle PEG400:H2O pH 2.3 30:70): 712 ng·h/mL | concentration at 7 h ([4]; PO, 25 mg/kg, vehicle PEG400:H2O pH 2.3 30:70, read-out: Cmin (7 hr conc.)): 15 ng/mL | Ki (human FGF-R1): 79 nM | IC50 [9, 15]: ~4 nM
